From article PMC8449414, “Rational design of ASCT2 inhibitors using an integrated experimental-computational approach” (Proceedings of the National Academy of Sciences of the …, 2021)

How the values were obtained:
Assay type in all cases: cell-based
rASCT2 [1] = target: T1, rASCT2 (Rattus norvegicus, UniProt D3ZJ25); assay: Electrophysiology: inhibition of leak anion current in transfected HEK293 cells; settings: for inhibition of the leak anion current (in words): concentration range tested up to 200 µM, Ki could not be obtained; for Km: substrate dose response of anion current, rat ASCT2-expressing HEK293 cells, read-out: apparent Km
T1 construct: expressed in transfected cells; host or cells: HEK293 (ATCC CRL-11268), transient transfection
T1 sequence (D3ZJ25 1-555): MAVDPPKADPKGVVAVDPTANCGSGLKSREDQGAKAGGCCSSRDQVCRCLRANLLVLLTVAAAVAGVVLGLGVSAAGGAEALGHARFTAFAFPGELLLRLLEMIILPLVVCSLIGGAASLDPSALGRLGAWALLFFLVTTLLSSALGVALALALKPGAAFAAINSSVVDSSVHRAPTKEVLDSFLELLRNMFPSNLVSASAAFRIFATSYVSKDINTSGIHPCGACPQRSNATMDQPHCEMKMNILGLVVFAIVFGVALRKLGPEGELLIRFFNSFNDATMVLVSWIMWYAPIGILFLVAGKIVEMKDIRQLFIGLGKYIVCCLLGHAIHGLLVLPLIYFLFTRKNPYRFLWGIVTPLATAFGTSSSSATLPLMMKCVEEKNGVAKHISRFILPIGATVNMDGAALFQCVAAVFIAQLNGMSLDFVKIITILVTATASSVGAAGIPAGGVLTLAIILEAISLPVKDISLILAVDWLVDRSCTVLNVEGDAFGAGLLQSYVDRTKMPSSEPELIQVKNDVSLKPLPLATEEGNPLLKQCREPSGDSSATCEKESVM
Method: (§1) Cell culture and transfection
(§2) Human embryonic kidney 293 (HEK293, ATCC CRL -11268) cells were cultured in DMEM media supplemented with 10% (v/v) fetal bovine serum (FBS), 2 mM glutamine, 1% penicillin streptomycin solution, 1 mM sodium pyruvate and non -essential amino acids. Cells were maintained at 370C in a fully humidified atmosphere containing 5% CO2. rASCT2, hASCT2, hASCT1, EAAT1, EAAT2, EAAT3, EAAT5 and YFP complementary DNAs were each used to transiently transfect HEK293 using POLYPLUS Jet-prime transfection reagent. Cells were analyzed using electrophysiological techniques 24-40 hours after transfection.
(§3) Electrophysiological techniques
(§4) Electrophysiological experiments were performed as described previously 1,2. Stock solutions of inhibitor was prepared in dimethyl sulfoxide (DMSO) up to 100 mM.
(§5) Dilutions to working concentrations were made using external buffer. The highest

hASCT2 = target: T2, hASCT2 (Homo sapiens, UniProt Q15758); assay: as above; settings: HEK293 cells, 0 mV, 130 mM NaSCN internal, 140 mM NaCl external; No current = no inhibition of anion leak current up to highest concentration tested (§ 20-50, || 100-400, # 1500-2500 µM); read-out: Binding affinity Ki (apparent Ki)
T2 construct: expressed in transfected cells; host or cells: HEK293 (ATCC CRL-11268), transient transfection
T2 sequence (Q15758 1-541): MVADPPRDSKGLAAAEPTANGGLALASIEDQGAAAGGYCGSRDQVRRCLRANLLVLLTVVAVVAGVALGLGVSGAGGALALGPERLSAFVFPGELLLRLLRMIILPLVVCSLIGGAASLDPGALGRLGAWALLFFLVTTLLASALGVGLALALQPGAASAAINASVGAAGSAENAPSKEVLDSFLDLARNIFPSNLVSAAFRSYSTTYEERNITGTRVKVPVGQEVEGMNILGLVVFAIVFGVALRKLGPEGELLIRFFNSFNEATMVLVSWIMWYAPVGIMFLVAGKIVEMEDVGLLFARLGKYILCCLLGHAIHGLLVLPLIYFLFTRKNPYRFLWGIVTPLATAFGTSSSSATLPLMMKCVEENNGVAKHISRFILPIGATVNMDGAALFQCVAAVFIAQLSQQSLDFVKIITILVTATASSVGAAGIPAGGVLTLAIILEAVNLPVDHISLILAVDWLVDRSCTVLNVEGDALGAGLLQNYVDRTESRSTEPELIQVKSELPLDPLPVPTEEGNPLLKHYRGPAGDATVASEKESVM
Method: as §1, §2, §3, §4, §5

rASCT2 [2] = target: T1, rASCT2; assay: Inhibitor dissociation kinetics by ligand displacement with alanine (rapid solution exchange); settings: 5 mM alanine rapidly applied, no inhibitor (control), 0 mV
Method: Fig. 2. […] (A) Electrophysiological recordings obtained after application of alanine (red trace) and increasing concentrations of Lc-BPE (black traces). The times of application of alanine or Lc-BPE are shown by a gray bar (top). (B and C) Lc-BPE inhibitor dose–response relationships for rASCT2 and hASCT2, respectively. […] Currents were normalized to the current recorded after application of 10 µM inhibitor concentration. (D) Inhibition of glutamine uptake (5 µM external concentration) in the presence of varying concentration of Lc-BPE and 5 µM glutamine measured in proteoliposomes reconstituted with purified hASCT2. […] Errors bars represent SEM from at least two biologically independent measurements. (E) Current recorded after rapid solution exchange from extracellular buffer (control, gray bar, black trace) to a solution containing buffer + 5 mM alanine (white bar). For the red trace, the cell was preincubated with 10 µM Lc-BPE (red bar, red trace) followed by rapid application of 5 mM alanine. All current recordings were performed at 0 mV in the presence of 130 mM NaSCN internal and 140 mM NaCl external (homoexchange) solutions. […]
To test this, we measured the dissociation kinetics of Lc-BPE using a ligand displacement approach. First, rASCT2-expressing cells were preincubated with a saturating solution of Lc-BPE (10 µM), and subsequently the inhibitor was displaced using a supersaturating concentration of the substrate L-alanine (5 mM) (Fig. 2 E and F).

Km (rASCT2 [1]; 0 mV) [µM]	Compound	inhibition of the leak anion current (in words) (rASCT2 [1])	other results
–	O=C(O[C@H]1CN[C@@H](C(=O)O)C1)c1ccc(-c2ccccc2)cc1 [Dc-BPE]	too small at high compound concentrations	–
–	O=C(O[C@@H]1CN[C@@H](C(=O)O)C1)c1ccc(-c2ccccc2)cc1 [Dt-BPE]	unspecific	–
–	O=C(O[C@H]1CN[C@H](C(=O)O)C1)c1ccc(-c2ccccc2)cc1 [Lt-BPE]	–	Ki (rASCT2 [1]; HEK293 cells, 0 mV, 130 mM NaSCN internal, 140 mM NaCl external, No current = no inhibition of anion leak current up to highest concentration tested (§ 20-50, || 100-400, # 1500-2500 µM), read-out: Binding affinity Ki (apparent Ki)): 232 ± 44 µM; Ki (hASCT2): 205 ± 27 µM
318 ± 17	C[C@H](N)C(=O)O [alanine, L-alanine, reference compound]	–	rate constant of the current rise (rASCT2 [2]): 24.6 ± 5.2 s⁻¹; rate constant of the current rise (rASCT2 [2]; listed as Alanine): 24 s⁻¹
233 ± 41	NC(=O)CC[C@H](N)C(=O)O [glutamine, L-glutamine, reference compound]	–	–
